According to patent US11260050B2, “Combination of cotinine plus antioxidant for treatment-resistant depression and correction of astrocytes functional deficit induced by depression and other neuropathological” (UNIVERSIDAD SAN SEBASTIAN, priority 2017, dated 2022):

Tests used:
conditioned mice [1] = assay: Forced swim test after fear conditioning and extinction (Example 4); assay type: in vivo, Mice C57BL/6; settings: FC mice after extinction; Tukey: cotinine p<0.001, combination p<0.005, sertraline p<0.05
Description: (§1) Three-month-old mice (n=5-6/condition) were weighed and assigned to treatment groups. Mice were treated with vehicle or drugs, starting two h after fear conditioning and daily after behavioral testing until euthanasia. Mice received daily treatments with 1. PBS (phosphate buffer saline, pH 7.4) via intranasal; 2. Cotinine (10 mg/ml) dissolved in PBS via intranasal (IN Cot, 24 μl); 3. Krill oil dissolved in PBS, via intranasal (48 mg/ml, 24 μl); 4. Cotinine (10 mg/ml) plus krill oil dissolved in PBS, via intranasal (48 mg/ml, 24 μl); 5.
(§2) For intranasal delivery, mice were hand-restrained, placed in a supine position, and given two 12 μl drops of cotinine solutions, or PBS, into both nares consecutively. Mice were given an extra 12 μl treatment drop if the subject forcibly ejected or sneezed out the solution. Mice were held supine for 5-10 seconds after delivery to ensure that all fluid was inhaled.

conditioned mice [2] = assay: Fear retention and extinction tests after fear conditioning (Example 4); assay type: in vivo, Mice C57BL/6
Description: as §1, §2
Contextual fear conditioning was performed as described. The conditioning chamber used (33 cm×20 cm×22 cm) is surrounded by a sound-attenuating box with a camera connected to freeze frame software (MED Associates Inc.) and equipped to provide a background white noise (72 dB). The conditioning chamber contains in one side a speaker and in the opposite side has a 24V light, and a 36-bar insulated shock grid floor. To perform this test, each mouse was placed in the conditioning chamber for 2 min before the onset of a discrete tone (a sound that will last 30 seconds (sec) at 2,800 Hz and 85 dB). In the last two seconds of this tone, mice received a foot shock of 1 mA, kept in the conditioning chamber for 2 min and returned to their home cages. Between trials, the chamber was sanitized with 70% ethanol and dried. Freezing behavior was defined as the absence of all movement except the one needed for breathing was assessed using the FreezeView Software (MED Associates Inc.).
Fear retention and extinction experiments were performed as described, using the same cohorts of mice and reproduced in two separate experiments. To assess fear retention and mice underwent re-exposure to the conditioning chamber in the absence of an unconditioned stimulus (shock or auditory cues) for 3 minutes (min) in daily extinction trials. Freezing behavior was measured using the ANY-Maze® software (Stoelting CO, USA). The extinction trials were continued until the decrease in freezing behavior reached a stable level.

## CN[C@H]1CC[C@@H](c2ccc(Cl)c(Cl)c2)c2ccccc21.Cl [Sertraline, (1S,4S)-4-(3,4-dichlorophenyl)-1,2,3,4-tetrahydro-N-methyl-1-naphthalenamine hydrochloride, reference compound]
Conditioned mice [1]
  depressive-like behavior (immobility) in the forced swim test: significantly decreased depressive-like behavior
Conditioned mice [2]; 5 days of extinction, daily treatment
  freezing behavior during daily extinction trials (speed of fear extinction): overall slower extinction of fear than controls
Conditioned mice [2]; treatment started 2 h after FC, IN cotinine 10 mg/ml, IN KO 48 mg/ml, oral sertraline 3 mg/kg
  fear reaction (freezing) in the retention test: no significant effects
